Results on 1 compound are retold here after patent US9227955B2, “Compound having angiogenesis inhibitory activity, method for preparing same, and pharmaceutical composition comprising same” (Boryung Pharmaceutical Co., Ltd., priority 2011, dated 2016).

Entries after “also recorded” stand apart in the source; their conditions may differ. Marks after values point to notes of the source that are not given here.

The nature of data set [1]: Cell viability MTS assay (cytotoxicity). The format is cell-based. Particulars: human; A-431 cells, 48 hrs incubation; read-out: IC50, MTS assay for cytotoxicity against A-431.
The test system of data set [2] is HUVECs (human umbelical vein endothelial cells). Kind of data set: Transwell assay, VEGF-induced cell migration in HUVECs. The format is cell-based. Particulars: for No. of migration cells/field: 10 ng/ml VEGF 24 hrs, n=3. The method, then:
To examine the inhibitory effect of the compounds obtained in the Examples on VEGF (Vascular endothelial growth factor)-induced cell migration in HUVECs (human umbelical vein endothelial cells), a transwell assay was performed as follows.
HUVECs, provided from ATCC (American Type Culture Collection), were incubated in EGM-2 (Endothelial growth Medium-2 Medium) including 10% FBS, penicillin (100 unit/ml) and 100 μg/ml streptomycin sulfate plus various growth factors at 37° C. in an atmosphere of 5% CO2. After the change of the medium with growth factor-free EBM-2 (Endothelial Basal Medium-2 Medium), the cells were subjected to transwell assay.
After for 24 hours, the cells were fixed for 1 min with ethanol and were stained with a dye. Cell migration was evaluated by counting cells which moved through the pores.
In addition, cells were treated with Compound No. 250 (Example 26) at various concentrations given in Table 3, and assayed for cell migration, as conducted with Compounds 103, 110, 218, 273, 275, 276, 290, 312, 428, 442, and 509. The results were compared with those obtained after non-treatment (no treat) or treatment with 10 ng/mL VEGF.
Results were expressed as average numbers (n=3) of HUVECs which moved cross the membrane. Test results are summarized in Table 3 for compounds 103, 110, 218, 273, 275, 276, 290, 312, 428, 442, and 509, and in Table 4 for compound 250.

Data set [3] relates to HUVECs. Kind of data set: Wound healing assay, VEGF-induced migration of HUVECs. The format is cell-based, human. Particulars: for Wound closure: 24 hrs. The procedure: Using a sterile, disposable cell scraper (BD Falcon, Bedford, USA), a monolayer of HUVECs was scraped, and the cells were gently washed with PBS. […] After 24 hours, the cell migration were monitored through the scraped monolayer of the cell and photographed under a microscope equipped with a camera (Canon Powershot640).
Also, Compound 250 (Example 26) was applied at various concentrations shown in Table 6 in the same manner as Compound 103, followed by monitoring and photographing the migration of the cells under the microscope. For comparison, the cells were not treated (control) or were treated with 10 ng/mL VEGF, alone.

Data set [4] relates to HUVECs. Kind of data set: BrdU incorporation assay, VEGF-induced cell proliferation in HUVECs. The format is cell-based, human. The procedure: A BrdU incorporation assay was carried out to examine whether the proliferation of HUVECs through VEGF-induced DNA synthesis is suppressed by BRN-103. HUVECs grown as in Experimental Example 2 were seeded at a density of 1×10^4 cells/well into 96-well plates. […] Thereafter, DNA synthesis in the cells was fluorescently measured using a BrdU incorporation assay kit (Roche).
Likewise, the cells were treated with various concentrations of Compound 250 (Example 26) given in Table 8, and then with VEGF, as the same manner of that of Compound 103. Intracellular DNA was also quantified, as the same manner of that of Compound 103. For comparison, the cells were not treated (control), or were treated with 10 ng/mL VEGF, alone.
For orientation: Incorporation of labelled thymidine or its analogues reports DNA synthesis.

For data set [5], the system named is HUVECs. Kind of data set: VEGF-induced tube formation of HUVECs (capillary structure formation assay). The settings on record: for Number of tubes/field: 4 hrs. The format is cell-based, human. The procedure:
After HUVECs were seeded at a density of 3×10^5 cells/well into Matrigel-coated 48-well plates, HUVECs were with 10 ng/ml VEGF for 4 hrs. The HUVECs where tubes were formed were monitored and photographed under a microscope equipped with a camera to count cells.
HUVECs were also treated with Compound 250 (Example 26) at various concentrations given in Table 10, The HUVECs where tubes were formed were monitored and photographed under a microscope equipped with a camera, like Compound 103.

Data set [6] concerns Aortic rings excised from C57BL/6 mice. Kind of data set: Ex vivo microvessel sprouting assay, mouse aortic rings. The settings on record: mouse aortic rings, 0.1, 0.5, 1 μM, 10 ng/ml VEGF 7 days, FIG. 5. An excerpt: Sprouts from margins of the aortic rings were photographed under a microscope equipped with a camera.
Data set [7] concerns AKT (serine/threonine protein kinase B). As to the kind of experiment: VEGF-induced AKT activation in HUVECs (Western blot). The format is cell-based, human. Particulars: HUVECs pretreated 1 hr, VEGF 10 ng/ml 30 min, FIG. 9. The method, then:
(§1) An examination was made to see the effect of compounds of Chemical Formula I, prepared in the Examples above, on VEGF-induced activation of AKT (serine/threonine protein kinase B)/ERK (Extracellular signal-regulated kinases) and eNOS (endothelial nitric oxide synthase) in HUVECs, as follows (endothelial nitric oxide synthase).
(§2) After 3 min of centrifugation at 4000 rpm to collect the cells, the cell pellet was washed once with PBS (phosphate buffered saline). The cell pellet suspended in a lysis buffer (50 mM HEPES pH 7.0, 250 mM NaCl, 5 mM EDTA, 0.1% Nonidet P-40, 1 mM phenylmethylsulfonyl fluoride and 0.5 mM Na orthovanadate) containing 5 μl/mL of leupeptin and aprotinin, each and the reaction was performed at 4° C. for 20 min. After the cell debris was removed by microcentrifugation, the supernatant was swiftly cooled.
(§3) Protein quantification was carried out using a Bio-Rad protein assay reagent. […]
(§4) For immunoblotting, the membrane was incubated overnight at 4° C. in a blocking solution (5% skim milk), and reacted with a primary antibody for 4 hrs. After 4 washes with Tween 20/Tris-buffered saline (TTBS), the membrane was reacted with a 1:1000 (v/v) dilution of a horseradish peroxidase-conjugated secondary antibody at room temperature for 1 hr, washed three times with TTBS, and visualized by a chemical luminescence method (Amersham Life Science).
A general note: In western blotting, separated proteins are transferred to a membrane and probed.

The subject of data set [8] is ERK (Extracellular signal-regulated kinases). Kind of data set: VEGF-induced ERK activation in HUVECs (Western blot). The format is cell-based, human. Particulars: HUVECs pretreated 1 hr, VEGF 10 ng/ml 10 min, FIG. 9. The procedure:
as §1, §2, §3, §4

The subject of data set [9] is eNOS (endothelial nitric oxide synthase). Kind of data set: VEGF-induced eNOS activation in HUVECs (Western blot). In kind it is cell-based, human. The settings on record: HUVECs pretreated 1 hr, VEGF 10 ng/ml 1 hr, FIG. 9. The procedure: as §1, §2, §3, §4

Broadly, the IC50 is the concentration that inhibits the measured activity by half. Turning to `O=C(Nc1cccc(Cl)c1)c1cccnc1NC1CCN(Cc2ccccc2)CC1` [Compound 103, 2-(1-Benzylpiperidin-4-ylamino)-N-(3-chlorophenyl)nicotinamide], the IC50 at 48 h in data set [1] amounted to 40.6 µM. Also, the “No. of migration cells/field” value is 16*** cells/field in [2] (0.1 μM), 12*** cells/field in data set [2] (0.5 μM) and 8*** cells/field in [2] (1 μM). Besides, the “suppression of VEGF-induced migration of HUVECs, in words” value is recorded as “more suppressive than the anticancer agent sunitinib” in data set [2] (transwell assay, text on Tables 3 and 4); “higher efficiency than sunitinib” in the data set with HUVECs [3] (wound healing assay, text on Tables 5 and 6). Besides, the Wound closure is 200 µm with HUVECs [3] (VEGF + 0.1 μM), 180 µm in the data set on HUVECs [3] (VEGF + 0.5 μM) and 155 µm in the data set with HUVECs [3] (VEGF + 1 μM). The BrdU incorporation with HUVECs [4] (1 μM, without VEGF) was 0.7 OD 450 nm; with HUVECs [4] (VEGF + 0.1 μM, 24 hrs), 1.0*** OD 450 nm; in the data set with HUVECs [4] (VEGF + 0.5 μM, 24 hrs), 0.8*** OD 450 nm; with HUVECs [4] (VEGF + 1 μM, 24 hrs), 0.7*** OD 450 nm. Moreover, the “inhibition of VEGF-induced proliferation in HUVECs, in words” value in the data set with HUVECs [4] (BrdU assay, text on Tables 7 and 8) is reported as “inhibited VEGF-induced proliferation in HUVECs in a dose-dependent manner”. In the data set on HUVECs [5] (Tables 9 and 10), the “suppression of VEGF-induced tube formation, in words” value is “more efficient in the inhibition of tube formation than sunitinib; also recorded: VEGF-induced tube formation was also suppressed”. For the same compound, the entries for the “Number of tubes/field” value in the data set on HUVECs [5] (VEGF + 0.1 μM), with HUVECs [5] (VEGF + 0.5 μM) and in the data set on HUVECs [5] (VEGF + 1 μM) were 90** tubes/Field, 80*** tubes/Field and 60*** tubes/Field, respectively. For the same compound, in [6], the VEGF-induced aortic sprouting entry is recorded as “inhibited VEGF-induced aortic sprouting”. Moreover, the “expression of p-AKT” value in data set [7] was “decreased the expression of p-AKT”. The “expression of p-ERK” value in data set [8] is given as “did not suppress the expression of p-ERK”. For the same compound, the p-eNOS level result in [9] is “downregualted”.
